Results: PubChem BioAssay AID328 (DTP/NCI, 2004)
Several values for one entry are separate records, joined by “and”; a condition that tells them apart may be missing. Equal entries are not always repeated. Toxic doses and inconclusive results are not listed.

Tested on: BDF1 mice, P388 leukemia ip, median survival T/C
Test: NCI In Vivo Anticancer Drug Screen. Data for tumor model P388 Leukemia (intraperitoneal) in B6D2F1 (BDF1) mice
Details: endpoint: median survival time, higher = longer survival
Summary of the method: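 Transplantable tumour in mice; compound vs vehicle dosing; survival scored; ratio of treated to control reported.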

[1] = dose: 3.12 mg/kg/injection, schedule: Q01DX009 (ip), vehicle: saline
[2] = dose: 25.0 mg/kg/injection, schedule: Q01DX009 (ip), vehicle: saline with Tween-80
[3] = dose: 25.0 mg/kg/injection, schedule: Q01DX009 (ip), vehicle: saline
[4] = dose: 50.0 mg/kg/injection, schedule: Q01DX009 (ip), vehicle: saline with Tween-80
[5] = dose: 50.0 mg/kg/injection, schedule: Q04DX003 (ip), vehicle: saline with Tween-80
[6] = dose: 100.0 mg/kg/injection, schedule: Q01DX009 (ip), vehicle: saline with Tween-80
[7] = dose: 100.0 mg/kg/injection, schedule: Q04DX003 (ip), vehicle: saline with Tween-80
[8] = dose: 12.5 mg/kg/injection, schedule: Q04DX003 (ip), vehicle: saline
[9] = dose: 50.0 mg/kg/injection, schedule: Q01DX009 (ip), vehicle: saline
[10] = dose: 200.0 mg/kg/injection, schedule: Q01DX009 (ip), vehicle: saline with Tween-80
[11] = dose: 200.0 mg/kg/injection, schedule: Q04DX003 (ip), vehicle: saline with Tween-80
[12] = dose: 400.0 mg/kg/injection, schedule: Q04DX003 (ip), vehicle: saline with Tween-80
[13] = dose: 100.0 mg/kg/injection, schedule: Q04DX003 (ip), vehicle: saline

CC(=O)C1=C(O)C2(O)C(=O)c3c(c(C)c4ccc(C)c(O)c4c3O)CC2C(N)C1=O (stereo not given)
T/C (dose: 1.56 mg/kg/injection, schedule: Q01DX009 (ip), vehicle: saline with Tween-80): 109 % of control
T/C (dose: 3.13 mg/kg/injection, schedule: Q01DX009 (ip), vehicle: saline with Tween-80): 104 % of control
T/C (dose: 6.25 mg/kg/injection, schedule: Q01DX009 (ip), vehicle: saline with Tween-80): 118 % of control

CCCCCCCCCCCCCCCCCC(=O)Oc1ccc(OCc2ccccc2)cc1
T/C (dose: 100.0 mg/kg/injection, schedule: Q04DX003 (ip), vehicle: Klucel (hydroxypropylcellulose) (HPC)): 100 % of control
T/C (dose: 200.0 mg/kg/injection, schedule: Q04DX003 (ip), vehicle: Klucel (hydroxypropylcellulose) (HPC)): 100 % of control
T/C (dose: 400.0 mg/kg/injection, schedule: Q04DX003 (ip), vehicle: Klucel (hydroxypropylcellulose) (HPC)): 90 % of control

CC(C)(Br)C(=O)c1ccc([N+](=O)[O-])o1
T/C (dose: 0.78 mg/kg/injection, schedule: Q01DX009 (ip), vehicle: water): 95 % of control
T/C (dose: 1.56 mg/kg/injection, schedule: Q01DX009 (ip), vehicle: water): 89 % of control
T/C [1]: 116 % of control
T/C (dose: 3.12 mg/kg/injection, schedule: Q01DX009 (ip), vehicle: water): 87 % of control
T/C (dose: 6.25 mg/kg/injection, schedule: Q01DX009 (ip), vehicle: saline): 123 % of control
T/C (dose: 6.25 mg/kg/injection, schedule: Q01DX009 (ip), vehicle: water): 105 % of control
T/C (dose: 12.5 mg/kg/injection, schedule: Q01DX009 (ip), vehicle: saline with Tween-80): 95 % of control
T/C (dose: 12.5 mg/kg/injection, schedule: Q01DX009 (ip), vehicle: water): 104 % of control
T/C [2]: 100 % of control
T/C [3]: 116 % of control
T/C (dose: 25.0 mg/kg/injection, schedule: Q04DX003 (ip), vehicle: saline with Tween-80): 107 % of control
T/C [4]: 95 % of control
T/C [5]: 109 % of control
T/C [6]: 87 % of control
T/C [7]: 100 % of control

O=C(CBr)c1cccnc1
T/C (dose: 6.25 mg/kg/injection, schedule: Q04DX003 (ip), vehicle: saline): 104 % of control
T/C [8]: 104 % of control
T/C (dose: 25.0 mg/kg/injection, schedule: Q04DX003 (ip), vehicle: saline): 95 % of control

C/C(=N/N(C)C)c1ccc(Br)cc1
T/C (dose: 12.5 mg/kg/injection, schedule: Q01DX009 (ip), vehicle: saline): 100 % of control
T/C [3]: 100 % of control
T/C [9]: 112 % of control
T/C (dose: 110.0 mg/kg/injection, schedule: Q04DX003 (ip), vehicle: saline): 109 % of control
T/C (dose: 170.0 mg/kg/injection, schedule: Q04DX003 (ip), vehicle: saline): 95 % of control
T/C (dose: 255.0 mg/kg/injection, schedule: Q04DX003 (ip), vehicle: saline): 95 % of control

CC(=O)OC1(C)CC(C)(C)N=N1 (stereo not given)
T/C (dose: 25.0 mg/kg/injection, schedule: Q01DX005 (ip), vehicle: water): 107 % of control
T/C (dose: 50.0 mg/kg/injection, schedule: Q01DX005 (ip), vehicle: water): 105 % of control
T/C (dose: 100.0 mg/kg/injection, schedule: Q01DX005 (ip), vehicle: water): 105 % of control
T/C (dose: 200.0 mg/kg/injection, schedule: Q01DX005 (ip), vehicle: water): 114 % of control
T/C (dose: 400.0 mg/kg/injection, schedule: Q01DX005 (ip), vehicle: water): 107 % of control

N/N=C(/C=C/C(=O)O)c1ccccc1
T/C (dose: 100.0 mg/kg/injection, schedule: Q01DX001 (ip), vehicle: saline sonified): 100 % of control
T/C (dose: 200.0 mg/kg/injection, schedule: Q01DX001 (ip), vehicle: saline sonified): 109 % of control
T/C (dose: 400.0 mg/kg/injection, schedule: Q01DX001 (ip), vehicle: saline sonified): 100 % of control

N#Cc1nc2ccccc2nc1C#N
T/C (dose: 12.5 mg/kg/injection, schedule: Q01DX009 (ip), vehicle: Klucel (hydroxypropylcellulose) (HPC)): 106 % of control
T/C (dose: 25.0 mg/kg/injection, schedule: Q01DX009 (ip), vehicle: Klucel (hydroxypropylcellulose) (HPC)): 99 % of control

O=C1/C(=C/c2ccccc2O)SC(=S)N1CCCN1CCOCC1
T/C [4]: 95 % of control
T/C [6]: 100 % of control
T/C [10]: 90 % of control

CCCCN(CCCC)CCC(O)c1cc2ccc(C(F)(F)F)cc2c2cc(C(F)(F)F)ccc12 (stereo not given)
T/C [4]: 94 % of control
T/C [6]: 90 % of control
T/C [10]: 110 % of control

Nc1ccccc1C(=O)Nc1ncn[nH]1
T/C [4]: 96 % of control
T/C [6]: 90 % of control
T/C [10]: 94 % of control

Cc1nc(N)c2nc(SCc3ccc(Cl)cc3)c(N)nc2n1
T/C [11]: 86 % of control
T/C [12]: 97 % of control

O=C1C=C(Nc2nc(O)cc(=O)[nH]2)c2ccccc2C1=O
T/C (dose: 37.5 mg/kg/injection, schedule: Q01DX001 (ip), vehicle: Klucel (hydroxypropylcellulose) (HPC)): 100 % of control
T/C (dose: 75.0 mg/kg/injection, schedule: Q01DX001 (ip), vehicle: Klucel (hydroxypropylcellulose) (HPC)): 100 % of control
T/C (dose: 150.0 mg/kg/injection, schedule: Q01DX001 (ip), vehicle: Klucel (hydroxypropylcellulose) (HPC)): 100 % of control
T/C (dose: 150.0 mg/kg/injection, schedule: Q04DX003 (ip), vehicle: Klucel (hydroxypropylcellulose) (HPC)): 95 % of control

CCCCCCCCOc1cc2c(c(OC(C)=O)c1)-c1ccccc1CC2
T/C [7]: 97 % of control
T/C [11]: 99 % of control
T/C [12]: 99 % of control

C[N+](C)(C)/N=C1\CCc2ccccc21
T/C [5]: 95 % of control
T/C [7]: 95 % of control
T/C [11]: 95 % of control

COC(=O)CC1C(=O)C(C)(C(=O)OC)CCC1c1ccc(OC)cc1 (stereo not given)
T/C [13]: 109 % of control
T/C (dose: 200.0 mg/kg/injection, schedule: Q04DX003 (ip), vehicle: saline): 109 % of control
T/C (dose: 400.0 mg/kg/injection, schedule: Q04DX003 (ip), vehicle: saline): 104 % of control

CN=C(N)c1ccc(N=C(N)c2ccc(-c3ccc(C(N)=Nc4ccc(C(N)=NC)cc4)cc3)cc2)cc1
T/C (dose: 3.0 mg/kg/injection, schedule: Q04DX003 (ip), vehicle: saline): 118 % of control
T/C [1]: 123 % of control
T/C (dose: 5.5 mg/kg/injection, schedule: Q01DX009 (ip), vehicle: saline): 121 % of control
T/C (dose: 6.0 mg/kg/injection, schedule: Q04DX003 (ip), vehicle: saline): 118 % of control
T/C (dose: 12.0 mg/kg/injection, schedule: Q04DX003 (ip), vehicle: saline): 122 % of control
T/C [8]: 115 % of control
T/C (dose: 18.0 mg/kg/injection, schedule: Q01DX009 (ip), vehicle: saline): 96 % of control

Cc1[nH]ccc2c(C)c3nc4ccccc4c3cc12
T/C (dose: 0.39 mg/kg/injection, schedule: Q01DX009 (ip), vehicle: saline with Tween-80): 116 % of control
T/C (dose: 0.59 mg/kg/injection, schedule: Q01DX009 (ip), vehicle: saline with Tween-80): 100 % of control
T/C (dose: 0.9 mg/kg/injection, schedule: Q01DX009 (ip), vehicle: saline with Tween-80): 150 % of control
T/C (dose: 1.35 mg/kg/injection, schedule: Q01DX009 (ip), vehicle: saline with Tween-80): 160 % of control
T/C (dose: 4.12 mg/kg/injection, schedule: Q01DX009 (ip), vehicle: saline with Tween-80): 168 % of control
T/C (dose: 8.25 mg/kg/injection, schedule: Q01DX009 (ip), vehicle: saline with Tween-80): 177 % of control
T/C (dose: 16.5 mg/kg/injection, schedule: Q01DX009 (ip), vehicle: saline with Tween-80): 163 % of control
T/C [2]: 165 % of control and 168 % of control
T/C (dose: 37.5 mg/kg/injection, schedule: Q01DX009 (ip), vehicle: saline with Tween-80): 225 % of control and 154 % of control

CC1CN1P(=O)(N1CC=CCC1)N1CC1C (stereo not given)
T/C (dose: 9.38 mg/kg/injection, schedule: Q01DX009 (ip), vehicle: saline): 112 % of control
T/C (dose: 18.7 mg/kg/injection, schedule: Q01DX009 (ip), vehicle: saline): 116 % of control
T/C [9]: 162 % of control
T/C (dose: 75.0 mg/kg/injection, schedule: Q01DX009 (ip), vehicle: saline): 91 % of control
T/C [13]: 107 % of control
